This passage reports EC50 results from ChEMBL document CHEMBL6071211, “Invention of VH-937, a Potent HIV-1 Maturation Inhibitor with the Potential for Infrequent Oral Dosing in Humans” (ACS Med Chem Lett, 2024).

The structures appear in SMILES notation. pEC50: −log10 of the molar value.

What all share (format): functional, organism-based
Test [1] has as its system Human immunodeficiency virus 1. The test is described as follows: In vitro antiviral activity against fully replicating wild type HIV1 NL4-3.
The test system of test [2] is Human immunodeficiency virus 1. Nature of the test: In vitro antiviral activity against fully replicating wild type HIV1 NL4-3 in presence of human serum.
The test system of test [3] is Human immunodeficiency virus 1. Nature of the test: In vitro antiviral activity against fully replicating HIV1 NL4-3 harboring Gag T332S/V362I/prR41G mutant.
Test [4] deals with Human immunodeficiency virus 1. Nature of the test: In vitro antiviral activity against fully replicating HIV1 NL4-3 harboring Gag A364V mutant.
Where [5] appears, read: Human immunodeficiency virus 1, NL4-3.

With `C=C(C)[C@@H]1CC[C@]2(NCCN3CCS(=O)(=O)CC3)CC[C@]3(C)[C@H](CC[C@@H]4[C@@]5(C)CC=C(C6=CCC(COc7cc(C#N)ccn7)(C(=O)O)CC6)C(C)(C)[C@@H]5CC[C@]43C)[C@@H]12` (mixture of isomers), the pEC50 in test [1] (setting [5]) is 9.05; in test [2] (setting [5]), 7.33; in test [3] (setting [5]), 7.19; in test [4] (setting [5]), 7.14.

Turning to `C=C(C)[C@@H]1CC[C@]2(NCCN3CCS(=O)(=O)CC3)CC[C@]3(C)[C@H](CC[C@@H]4[C@@]5(C)CC=C(C6=CCC(COc7cccc(F)c7)(C(=O)O)CC6)C(C)(C)[C@@H]5CC[C@]43C)[C@@H]12` (mixture of isomers), the pEC50 in test [1] (setting [5]) is 8.08; in test [2] (setting [5]), 7.83; in test [3] (setting [5]), 7.46; in test [4] (setting [5]), 7.25.

Consider `C=C(C)[C@@H]1CC[C@]2(NCCN3CCS(=O)(=O)CC3)CC[C@]3(C)[C@H](CC[C@@H]4[C@@]5(C)CC=C(C6=CCC(COc7ccccn7)(C(=O)O)CC6)C(C)(C)[C@@H]5CC[C@]43C)[C@@H]12` (mixture of isomers), for which the pEC50 in test [1] (setting [5]) is 8.59; in test [2] (setting [5]), 7.21; in test [3] (setting [5]), 7.84; in test [4] (setting [5]), 7.95.

As for `C=C(C)[C@@H]1CC[C@]2(NCCN3CCS(=O)(=O)CC3)CC[C@]3(C)[C@H](CC[C@@H]4[C@@]5(C)CC=C(C6=CCC(COc7ccccc7F)(C(=O)O)CC6)C(C)(C)[C@@H]5CC[C@]43C)[C@@H]12` (mixture of isomers), the pEC50 in test [1] (setting [5]) is 8.21; in test [2] (setting [5]) it was 7.23; in test [3] (setting [5]), 7.71; in test [4] (setting [5]), 7.56.

As to `C=C(C)[C@@H]1CC[C@]2(NCCN3CCS(=O)(=O)CC3)CC[C@]3(C)[C@H](CC[C@@H]4[C@@]5(C)CC=C(C6=CCC(COc7nccs7)(C(=O)O)CC6)C(C)(C)[C@@H]5CC[C@]43C)[C@@H]12` (mixture of isomers), the pEC50 in test [1] (setting [5]) is 8.44; in test [2] (setting [5]), 7.61; in test [3] (setting [5]) it was 7.41; in test [4] (setting [5]), 8.62.

As to `C=C(C)[C@@H]1CC[C@]2(NCCN3CCS(=O)(=O)CC3)CC[C@]3(C)[C@H](CC[C@@H]4[C@@]5(C)CC=C(C6=CCC(COc7ccc(F)cc7)(C(=O)O)CC6)C(C)(C)[C@@H]5CC[C@]43C)[C@@H]12` (mixture of isomers), the pEC50 in test [1] (setting [5]) is 8.33; in test [2] (setting [5]), 7.13; in test [3] (setting [5]), 7.58; in test [4] (setting [5]), 7.66.

With `C=C(C)[C@@H]1CC[C@]2(NCCN3CCS(=O)(=O)CC3)CC[C@]3(C)[C@H](CC[C@@H]4[C@@]5(C)CC=C(C6=CCC(COCc7ccccc7)(C(=O)O)CC6)C(C)(C)[C@@H]5CC[C@]43C)[C@@H]12` (mixture of isomers), the pEC50 in test [1] (setting [5]) was 8.11; in test [2] (setting [5]), 7.01; in test [3] (setting [5]), 7.66; in test [4] (setting [5]), 7.30.

Take `C=C(C)[C@@H]1CC[C@]2(NCCN3CCS(=O)(=O)CC3)CC[C@]3(C)[C@H](CC[C@@H]4[C@@]5(C)CC=C(C6=CCC(COc7ccncn7)(C(=O)O)CC6)C(C)(C)[C@@H]5CC[C@]43C)[C@@H]12` (mixture of isomers): the pEC50 in test [1] (setting [5]) is 8.77; in test [2] (setting [5]) it was 7.63; in test [3] (setting [5]), 7.16; in test [4] (setting [5]), 8.00.

Consider `C=C(C)[C@@H]1CC[C@]2(NCCN3CCS(=O)(=O)CC3)CC[C@]3(C)[C@H](CC[C@@H]4[C@@]5(C)CC=C(C6=CCC(COc7cccnn7)(C(=O)O)CC6)C(C)(C)[C@@H]5CC[C@]43C)[C@@H]12` (mixture of isomers), for which the pEC50 in test [1] (setting [5]) was 8.59; in test [2] (setting [5]) it was 7.22; in test [3] (setting [5]), 7.33; in test [4] (setting [5]), 8.46.

Take `C=C(C)[C@@H]1CC[C@]2(NCCN3CCS(=O)(=O)CC3)CC[C@]3(C)[C@H](CC[C@@H]4[C@@]5(C)CC=C(C6=CC[C@](COc7ccccn7)(C(=O)O)CC6)C(C)(C)[C@@H]5CC[C@]43C)[C@@H]12`: the pEC50 was 8.80 in test [1] (setting [5]), 7.26 in test [2] (setting [5]), 8.06 in test [3] (setting [5]) and 8.24 in test [4] (setting [5]).

With `C=C(C)[C@@H]1CC[C@]2(NCCN3CCS(=O)(=O)CC3)CC[C@]3(C)[C@H](CC[C@@H]4[C@@]5(C)CC=C(C6=CCC(COc7ccc(Cl)cc7)(C(=O)O)CC6)C(C)(C)[C@@H]5CC[C@]43C)[C@@H]12` (stereo in doubt; 9), the pEC50 in test [1] is 8.49; in test [2] it was 8.00; in test [3] it was 7.07; in test [4], 6.61.

In the case of `C=C(C)[C@@H]1CC[C@]2(NCCN3CCS(=O)(=O)CC3)CC[C@]3(C)[C@H](CC[C@@H]4[C@@]5(C)CC=C(C6=CCC(COc7nnnn7C)(C(=O)O)CC6)C(C)(C)[C@@H]5CC[C@]43C)[C@@H]12` (mixture of isomers), the pEC50 was 8.77 in test [1] (setting [5]), 7.44 in test [2] (setting [5]), 8.17 in test [3] (setting [5]) and 7.62 in test [4] (setting [5]).

With `C=C(C)[C@@H]1CC[C@]2(NCCN3CCS(=O)(=O)CC3)CC[C@]3(C)[C@H](CC[C@@H]4[C@@]5(C)CC=C(C6=CCC(COc7ccc(C#N)cn7)(C(=O)O)CC6)C(C)(C)[C@@H]5CC[C@]43C)[C@@H]12` (mixture of isomers), the pEC50 is 8.72 in test [1] (setting [5]), 7.46 in test [2] (setting [5]), 6.63 in test [3] (setting [5]) and 7.54 in test [4] (setting [5]).

On to `C=C(C)[C@@H]1CC[C@]2(NCCN3CCS(=O)(=O)CC3)CC[C@]3(C)[C@H](CC[C@@H]4[C@@]5(C)CC=C(C6=CCC(COc7ccccc7)(C(=O)O)CC6)C(C)(C)[C@@H]5CC[C@]43C)[C@@H]12` (mixture of isomers), for which the pEC50 was 8.30 in test [1] (setting [5]), 7.23 in test [2] (setting [5]), 7.56 in test [3] (setting [5]) and 7.71 in test [4] (setting [5]).

As to `C=C(C)[C@@H]1CC[C@]2(NCCN3CCS(=O)(=O)CC3)CC[C@]3(C)[C@H](CC[C@@H]4[C@@]5(C)CC=C(C6=CCC(COc7ccc(Cl)cc7)(C(=O)O)CC6)C(C)(C)[C@@H]5CC[C@]43C)[C@@H]12` (stereo in doubt; 8), the pEC50 in test [1] was 7.53; in test [2], 6.83; in test [3] (setting [5]), 7.30; in test [4] it was 7.12.

Regarding `C=C(C)[C@@H]1CC[C@]2(NCCN3CCS(=O)(=O)CC3)CC[C@]3(C)[C@H](CC[C@@H]4[C@@]5(C)CC=C(C6=CC[C@@](COc7ncccc7C#N)(C(=O)O)CC6)C(C)(C)[C@@H]5CC[C@]43C)[C@@H]12` [ZEGRUVIRIMAT], the pEC50 in test [1] (setting [5]) is 8.60; in test [2] (setting [5]), 7.39; in test [3] (setting [5]), 8.24; in test [4] (setting [5]), 7.28.

As for `C=C(C)[C@@H]1CC[C@]2(NCCN3CCS(=O)(=O)CC3)CC[C@]3(C)[C@H](CC[C@@H]4[C@@]5(C)CC=C(C6=CC[C@@](COc7cnccn7)(C(=O)O)CC6)C(C)(C)[C@@H]5CC[C@]43C)[C@@H]12`, the pEC50 in test [1] (setting [5]) was 8.55; in test [2] (setting [5]), 7.32; in test [3] (setting [5]), 7.83; in test [4] (setting [5]), 7.67.

One may read the pEC50 as the EC50 on a negative log10 scale, so that one unit is a factor of ten.
